# ChEMBL document CHEMBL1137759, “Design, parallel synthesis, and crystal structures of biphenyl antithrombotics as selective inhibitors of tissue factor FVIIa complex. Part 1: Exploration of S2 pocket pharmacophores” (Bioorg Med Chem, 2009)
# Legend:
# Prothrombin = Prothrombin (Homo sapiens, UniProt P00734); assay: Inhibition of thrombin
# Plasminogen = Plasminogen (Homo sapiens, UniProt P00747); assay: Inhibition of plasmin
# [1] = biological target: Coagulation factor VII/tissue factor (Homo sapiens, UniProt P08709); assay: Inhibition of tissue factor/factor 7a; format: protein-complex assay
# Sequence of Coagulation factor VII/tissue factor (P08709 61-212 limits assumed): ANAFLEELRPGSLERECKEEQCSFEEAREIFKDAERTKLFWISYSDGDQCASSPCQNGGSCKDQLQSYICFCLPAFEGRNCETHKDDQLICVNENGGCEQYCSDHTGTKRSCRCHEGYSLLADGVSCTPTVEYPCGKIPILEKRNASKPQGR
# Sequence of Coagulation factor VII/tissue factor (P08709 213-466 limits assumed): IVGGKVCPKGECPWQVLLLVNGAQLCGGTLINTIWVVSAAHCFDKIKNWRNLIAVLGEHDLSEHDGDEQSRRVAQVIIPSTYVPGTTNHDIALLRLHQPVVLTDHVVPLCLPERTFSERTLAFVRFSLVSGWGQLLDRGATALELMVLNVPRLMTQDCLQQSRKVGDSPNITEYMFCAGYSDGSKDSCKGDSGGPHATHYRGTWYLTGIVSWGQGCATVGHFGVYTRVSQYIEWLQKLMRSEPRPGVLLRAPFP
# Sequence of Coagulation factor VII/tissue factor (P13726 33-295 partner limits assumed): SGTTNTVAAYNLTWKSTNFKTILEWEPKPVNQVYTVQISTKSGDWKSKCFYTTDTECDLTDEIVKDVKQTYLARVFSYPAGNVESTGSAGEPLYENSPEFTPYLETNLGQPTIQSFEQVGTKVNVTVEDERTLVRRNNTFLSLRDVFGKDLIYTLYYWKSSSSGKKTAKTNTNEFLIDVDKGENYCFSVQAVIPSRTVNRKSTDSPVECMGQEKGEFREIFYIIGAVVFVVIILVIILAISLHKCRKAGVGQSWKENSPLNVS
# [2] = Selectivity ratio of IC50 for tissue factor/factor 7a to IC50 for trypsin
# Coagulation factor X = Coagulation factor X (Homo sapiens, UniProt P00742)
# Sequence of Coagulation factor X (P00742 41-179 limits assumed): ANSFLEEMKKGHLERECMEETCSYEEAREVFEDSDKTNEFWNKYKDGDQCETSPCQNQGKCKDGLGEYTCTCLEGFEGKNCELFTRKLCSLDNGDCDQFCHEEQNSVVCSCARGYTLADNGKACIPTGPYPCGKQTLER
# Sequence of Coagulation factor X (P00742 235-488 limits assumed): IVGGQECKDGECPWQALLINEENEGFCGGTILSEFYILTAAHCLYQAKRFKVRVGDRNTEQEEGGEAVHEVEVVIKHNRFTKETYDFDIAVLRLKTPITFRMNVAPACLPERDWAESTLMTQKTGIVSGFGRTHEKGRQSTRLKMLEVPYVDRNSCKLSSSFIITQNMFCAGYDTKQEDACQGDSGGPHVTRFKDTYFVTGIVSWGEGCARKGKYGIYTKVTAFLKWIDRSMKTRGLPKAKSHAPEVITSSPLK
# Sequence of Plasminogen (P00747 97-580 limits assumed): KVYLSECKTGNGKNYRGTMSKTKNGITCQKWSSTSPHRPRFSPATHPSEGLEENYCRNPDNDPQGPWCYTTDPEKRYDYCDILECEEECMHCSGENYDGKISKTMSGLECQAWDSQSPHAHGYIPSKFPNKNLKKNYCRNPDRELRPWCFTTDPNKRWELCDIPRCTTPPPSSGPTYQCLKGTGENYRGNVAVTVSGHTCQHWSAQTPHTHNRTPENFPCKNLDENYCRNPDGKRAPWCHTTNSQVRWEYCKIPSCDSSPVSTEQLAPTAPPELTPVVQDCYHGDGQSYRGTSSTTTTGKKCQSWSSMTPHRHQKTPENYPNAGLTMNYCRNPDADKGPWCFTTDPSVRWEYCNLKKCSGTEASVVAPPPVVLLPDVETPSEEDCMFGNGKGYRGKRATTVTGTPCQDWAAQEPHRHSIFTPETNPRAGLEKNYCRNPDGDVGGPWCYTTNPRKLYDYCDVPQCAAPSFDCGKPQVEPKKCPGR
# Sequence of Plasminogen (P00747 581-810 limits assumed): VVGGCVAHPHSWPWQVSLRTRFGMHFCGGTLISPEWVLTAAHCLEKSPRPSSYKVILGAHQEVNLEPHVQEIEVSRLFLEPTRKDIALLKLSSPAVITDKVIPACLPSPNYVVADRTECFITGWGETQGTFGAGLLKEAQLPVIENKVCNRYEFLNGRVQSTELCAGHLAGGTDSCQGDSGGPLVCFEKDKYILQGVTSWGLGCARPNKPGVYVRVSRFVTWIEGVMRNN
Structure (SMILES),IC50 (Prothrombin),IC50 (Plasminogen),IC50 [1],Ratio IC50 [2],IC50 (Coagulation factor X)
CCc1ccc(-c2ccc(C(=O)NCC(C)C)cc2C(=O)O)c(C(=O)Nc2ccc(C(=N)N)cc2)c1,12300 nM,> 5000 nM,97 nM,61.8,50000 nM
CC(C)CNC(=O)c1ccc(-c2ccc(-c3cccs3)cc2C(=O)Nc2ccc(C(=N)N)cc2)c(C(=O)O)c1,8020 nM,–,10 nM,16,150 nM
CC(C)CNC(=O)c1ccc(-c2ccc(-c3ccc[nH]3)cc2C(=O)Nc2ccc(C(=N)N)cc2)c(C(=O)O)c1,19900 nM,–,14 nM,30.7,50 nM
C=CCc1ccc(-c2ccc(C(=O)NCC(C)C)cc2C(=O)O)c(C(=O)Nc2ccc(C(=N)N)cc2)c1,19200 nM,2470 nM,42 nM,57.6,1900 nM
CC(C)CNC(=O)c1ccc(-c2ccc(CN=[N+]=[N-])cc2C(=O)Nc2ccc(C(=N)N)cc2)c(C(=O)O)c1,–,–,60 nM,–,–
CC(C)CNC(=O)c1ccc(-c2ccc(C#CC(C)(C)O)cc2C(=O)Nc2ccc(C(=N)N)cc2)c(C(=O)O)c1,–,–,926 nM,–,–
CC(C)CNC(=O)c1ccc(-c2ccc(-c3ccsc3)cc2C(=O)Nc2ccc(C(=N)N)cc2)c(C(=O)O)c1,15000 nM,35 nM,10 nM,37.7,40 nM
COc1ccc(-c2ccc(C(=O)NCC(C)C)cc2C(=O)O)c(C(=O)Nc2ccc(C(=N)N)cc2)c1,14900 nM,14400 nM,30 nM,25.3,6630 nM
C/C=C\Cc1ccc(-c2ccc(C(=O)NCC(C)C)cc2C(=O)O)c(C(=O)Nc2ccc(C(=N)N)cc2)c1,4880 nM,684 nM,11 nM,119,7600 nM
CC(C)CNC(=O)c1ccc(-c2ccc(-c3ccoc3)cc2C(=O)Nc2ccc(C(=N)N)cc2)c(C(=O)O)c1,16100 nM,252 nM,11 nM,42.6,120 nM
CC(C)CNC(=O)c1ccc(-c2ccc(-c3cscc3CN)cc2C(=O)Nc2ccc(C(=N)N)cc2)c(C(=O)O)c1,110000 nM,229 nM,33 nM,54.2,10 nM
CC(C)CNC(=O)c1ccc(-c2ccc(-c3cscc3CN=[N+]=[N-])cc2C(=O)Nc2ccc(C(=N)N)cc2)c(C(=O)O)c1,157000 nM,242 nM,9 nM,133,50 nM
C=Cc1ccc(-c2ccc(C(=O)NCC(C)C)cc2C(=O)O)c(C(=O)Nc2ccc(C(=N)N)cc2)c1,9400 nM,–,9 nM,52.2,1650 nM
CC(C)CNC(=O)c1ccc(-c2ccc(-c3ccncc3)cc2C(=O)Nc2ccc(C(=N)N)cc2)c(C(=O)O)c1,35400 nM,–,231 nM,5.3,19400 nM
CC(C)CNC(=O)c1ccc(-c2ccc(Cc3ccccc3)cc2C(=O)Nc2ccc(C(=N)N)cc2)c(C(=O)O)c1,8510 nM,656 nM,21 nM,26.9,1750 nM
CC(C)CNC(=O)c1ccc(-c2ccc(-c3ccsc3C(=O)O)cc2C(=O)Nc2ccc(C(=N)N)cc2)c(C(=O)O)c1,–,–,190 nM,–,–
CC(C)CNC(=O)c1ccc(-c2ccc(-c3ccccc3)cc2C(=O)Nc2ccc(C(=N)N)cc2)c(C(=O)O)c1,11800 nM,–,98 nM,4.3,350 nM
C=C=Cc1ccc(-c2ccc(C(=O)NCC(C)C)cc2C(=O)O)c(C(=O)Nc2ccc(C(=N)N)cc2)c1,28000 nM,–,9 nM,59.8,1500 nM
CC(C)CNC(=O)c1ccc(-c2ccc(C=CCO)cc2C(=O)Nc2ccc(C(=N)N)cc2)c(C(=O)O)c1,22700 nM,–,52 nM,34,6620 nM
CC#Cc1ccc(-c2ccc(C(=O)NCC(C)C)cc2C(=O)O)c(C(=O)Nc2ccc(C(=N)N)cc2)c1,50000 nM,127 nM,34 nM,48.8,5220 nM
CC(C)CNC(=O)c1ccc(-c2ccc(-c3ccco3)cc2C(=O)Nc2ccc(C(=N)N)cc2)c(C(=O)O)c1,14700 nM,163 nM,9 nM,41.4,1300 nM
CC(C)CNC(=O)c1ccc(-c2ccc(-c3cscc3CO)cc2C(=O)Nc2ccc(C(=N)N)cc2)c(C(=O)O)c1,63100 nM,60 nM,9 nM,56.7,130 nM
CC(C)CNC(=O)c1ccc(-c2ccc(-c3ccsc3CO)cc2C(=O)Nc2ccc(C(=N)N)cc2)c(C(=O)O)c1,50000 nM,408 nM,36 nM,84.4,450 nM
CC(C)CNC(=O)c1ccc(-c2ccc(C#CCO)cc2C(=O)Nc2ccc(C(=N)N)cc2)c(C(=O)O)c1,–,–,320 nM,–,–

# More lines, in order of falling IC50 [1], values ahead:
IC50 (Prothrombin),IC50 (Plasminogen),IC50 [1],Ratio IC50 [2],IC50 (Coagulation factor X),Structure (SMILES)
–,–,1610 nM,–,–,CC(C)CNC(=O)c1ccc(-c2ccc(C(O)CO)cc2C(=O)Nc2ccc(C(=N)N)cc2)c(C(=O)O)c1 (stereo unspecified)
–,–,1220 nM,–,–,CC(C)CNC(=O)c1ccc(-c2ccc(CN)cc2C(=O)Nc2ccc(C(=N)N)cc2)c(C(=O)O)c1
–,–,650 nM,–,–,CC(C)CNC(=O)c1ccc(-c2ccc(-c3ccc(CO)s3)cc2C(=O)Nc2ccc(C(=N)N)cc2)c(C(=O)O)c1
50000 nM,–,546 nM,5.5,36500 nM,CC(C)CNC(=O)c1ccc(-c2ccc(-c3cccnc3)cc2C(=O)Nc2ccc(C(=N)N)cc2)c(C(=O)O)c1
17900 nM,–,500 nM,0.8,59000 nM,CC(C)CNC(=O)c1ccc(-c2ccc(C#CCCO)cc2C(=O)Nc2ccc(C(=N)N)cc2)c(C(=O)O)c1
50000 nM,–,330 nM,13.3,640 nM,CC(C)CNC(=O)c1ccc(-c2ccc(-c3sccc3CO)cc2C(=O)Nc2ccc(C(=N)N)cc2)c(C(=O)O)c1
–,–,130 nM,–,310 nM,C=C(C)/C=C\c1ccc(-c2ccc(C(=O)NCC(C)C)cc2C(=O)O)c(C(=O)Nc2ccc(C(=N)N)cc2)c1
64000 nM,–,120 nM,1.5,103000 nM,CC(C)CNC(=O)c1ccc(-c2ccccc2C(=O)Nc2ccc(C(=N)N)cc2)c(C(=O)O)c1
70400 nM,494 nM,104 nM,14.1,230 nM,CC(C)CNC(=O)c1ccc(-c2ccc(-c3nccs3)cc2C(=O)Nc2ccc(C(=N)N)cc2)c(C(=O)O)c1
39600 nM,> 5000 nM,92 nM,450,46000 nM,CCCc1ccc(-c2ccc(C(=O)NCC(C)C)cc2C(=O)O)c(C(=O)Nc2ccc(C(=N)N)cc2)c1
86900 nM,–,76 nM,5.4,50 nM,CC(C)CNC(=O)c1ccc(-c2ccc(-c3cccn3C)cc2C(=O)Nc2ccc(C(=N)N)cc2)c(C(=O)O)c1
50000 nM,–,67 nM,5.7,50000 nM,CC(C)CNC(=O)c1ccc(-c2ccc(O)cc2C(=O)Nc2ccc(C(=N)N)cc2)c(C(=O)O)c1
13000 nM,308 nM,45 nM,21.1,27000 nM,CC(C)=CCc1ccc(-c2ccc(C(=O)NCC(C)C)cc2C(=O)O)c(C(=O)Nc2ccc(C(=N)N)cc2)c1
56200 nM,358 nM,29 nM,75.5,11300 nM,C=C(CCO)c1ccc(-c2ccc(C(=O)NCC(C)C)cc2C(=O)O)c(C(=O)Nc2ccc(C(=N)N)cc2)c1
50200 nM,1000 nM,25 nM,115,8140 nM,C#Cc1ccc(-c2ccc(C(=O)NCC(C)C)cc2C(=O)O)c(C(=O)Nc2ccc(C(=N)N)cc2)c1
50000 nM,1070 nM,24 nM,32.1,150 nM,CC(C)CNC(=O)c1ccc(-c2ccc(-c3occc3CO)cc2C(=O)Nc2ccc(C(=N)N)cc2)c(C(=O)O)c1
> 50000 nM,554 nM,20 nM,114,230 nM,CC(C)CNC(=O)c1ccc(-c2ccc(-c3cocc3CO)cc2C(=O)Nc2ccc(C(=N)N)cc2)c(C(=O)O)c1
17900 nM,70 nM,13 nM,40.8,1170 nM,C=C(C)c1ccc(-c2ccc(C(=O)NCC(C)C)cc2C(=O)O)c(C(=O)Nc2ccc(C(=N)N)cc2)c1
39700 nM,810 nM,12 nM,295,7100 nM,C=C(CO)c1ccc(-c2ccc(C(=O)NCC(C)C)cc2C(=O)O)c(C(=O)Nc2ccc(C(=N)N)cc2)c1
42100 nM,913 nM,11 nM,127,8150 nM,CC(C)CNC(=O)c1ccc(-c2ccc(Cc3cccs3)cc2C(=O)Nc2ccc(C(=N)N)cc2)c(C(=O)O)c1
> 50000 nM,457 nM,8 nM,92.5,20 nM,CC(C)CNC(=O)c1ccc(-c2ccc(-c3ccoc3CO)cc2C(=O)Nc2ccc(C(=N)N)cc2)c(C(=O)O)c1
